Entries after “also recorded” stand apart in the source; their conditions may differ.
Tests used:
[1] = target: T1, TLR4/MD-2 complex (Homo sapiens, UniProt O00206+Q9Y6Y9); test: Divalent peptide library screening and ILVIK derivatives, binding to TLR4/MD-2 (ELISA); conditions: ELISA-based, Fig. 7A, D
T1 construct: TLR4/MD-2 recombinant protein (2 µg/ml) was added to each well
Protocol: Spot synthesis of divalent peptides on a cellulose membrane was performed using a ResPep SL SPOT synthesizer (INTAVIS Bioanalytical Instruments AG, Koeln, Germany) as described previously. Briefly, Fmoc-β-Ala-OH (Watanabe Chemical Industries, Hiroshima, Japan) was used in the first cycle, followed by amino hexanoic acid as a spacer. Fmoc-Lys(Fmoc)-OH (Watanabe Chemical Industries) was used for the next cycle to form two branches in the peptide chain for the subsequent synthesis of the various motifs. The synthesis of each peptide was confirmed by staining the membrane using bromophenol blue (1% in N, N′-dimethylformamide), which reacts with free amino residues. Free amino residues are produced only after the completion of all reactions and before deprotection of the side chain residues. […]
S100A8 recombinant protein was purified as previously described. […] Absorbance OD450/OD650 was measured using a microplate reader (Thermo Fisher Scientific). […] The amount of interleukin-8 (IL-8) or VEGF in the supernatants were analyzed by ELISA kits (R&D Systems, Mineapolis, MN) according to the manufacturer’s instructions.
Fig. 7 Isolation of multivalent S100A8 inhibitory peptides using divalent peptide libraries based on the sequences of peptide3A5. […] The binding affinities to TLR4/MD-2 complex were determined using an ELISA-based assay. […]

[2] = test system: S100A8-TLR4/MD-2 complex; test: Competitive inhibition of S100A8-TLR4/MD-2 binding (ELISA, S100A8 immobilized; also immunoprecipitation); set-up: species or system human; conditions: for competitive inhibition, potency compared with parent: ELISA, peptide3A5 vs peptide #3 (Fig. 3B), divalent vs monomer (Fig. 4A); for competitive inhibitory activity against TLR4/MD-2, peptide3A5-derived peptides: competitive inhibitory assay, Fig. 7B, E, *P < 0.05 vs TLR4/MD-2/S100A8
Protocol: (§1) S100A8 recombinant protein was purified as previously described. These proteins were immobilized on Maxisorp plates (Thermo Fisher Scientific, Waltham, MA, USA), followed by blocking with protein-free blocking buffer (Thermo Fisher Scientific). TLR4/MD-2 recombinant proteins with various concentrations of candidate peptides were then added to the indicated S100A8-immobilized ELISA plates for 2 h. The plates were washed, incubated with anti-TLR4 antibody, and HRP-conjugated secondary antibody, followed by the addition of substrate. The reaction was stopped by addition a 2N H2SO4 solution. Absorbance OD450/OD650 was measured using a microplate reader (Thermo Fisher Scientific). Maxisorp plates were also used for peptide coating. After blocking with protein-free blocking buffer, the coated plates were washed, and TLR4/MD-2 recombinant protein (2 µg/ml) was added to each well. The plates were incubated with a TLR4 antibody followed by horseradish peroxidase (HRP)-labeled anti-rabbit IgG. For detection of IL8 and VEGF in culture supernatants, SW480 cells were pretreated with the indicated peptides, and followed by stimulation with S100A8 for 24 h. The amount of interleukin-8 (IL-8) or VEGF in the supernatants were analyzed by ELISA kits (R&D Systems, Mineapolis, MN) according to the manufacturer’s instructions.
(§2) Fig. 2 Identification of S100A8 binding sites to human TLR4/MD-2. […] TLR4/MD-2 recombinant proteins were immobilized to the ELISA plate. After blocking, a full length or deletion mutant of S100A8 was added to the plate. The more detailed methods are described in Materials and Methods. […] B A series of overlapping S100A8 synthetic peptides. The TLR4/MD-2 recombinant proteins were added to each well of peptide immobilized plates. The affinity to TLR4/MD-2 was determined. Data are shown as mean ± SD. C The competitive activity was determined using ELISA. Data are shown as mean ± SD. D The TLR4/MD-2 was mixed with S100A8 with/without the indicated peptides, and immunoprecipitated using an anti-TLR4 antibody. TLR4 or S100A8 was visualized. Similar results were obtained in three independent experiments. […] Total RNAs from SW480 cells with/without treatment of the peptide candidates were extracted and qPCR analysis was performed using relevant primer sets and SYBR green. Relative expression levels were compared. […] TEXT PRINTED IN THE PICTURE: (A) Full length: TLR4/MD-2 binding: + | (A) S100A8-ΔC: TLR4/MD-2 binding: − | (A) S100A8-N: TLR4/MD-2 binding: −
(§3) Fig. 4 Improvement of competitive inhibition activity by divalent peptide3A5. A The binding capacity was measured at the indicated concentration using an ELISA-based assay. Similar results were obtained in three independent experiments. B SW480 cells were pretreated with 2.5 µM of divalent peptide3A5, and then stimulated with human S100A8 recombinant protein. After 30 min, cell lysates were subjected to western blotting using the indicated antibody. The divalent peptide#3 or peptide3A5 reduced the expression of S100A8-mediated IL-8 (C) and VEGF (D) induction. Total RNAs from SW480 cells with/without treatment of the peptide candidates were extracted and qPCR analysis was performed using relevant primer sets and SYBR green. Relative expression levels were compared. Peptide #3 suppresses S100A8-mediated IL-8(E) and VEGF (F) secretion in SW480 cells.

[3] = test system: PKH26-labeled LLC cells; test: Lung dissemination of PKH26-labeled LLC cells in TCM-sensitized mice; assay type: in vivo, C57BL/6J mice; conditions: 10 mg/kg i.p. 1 h before last TCM injection; lungs 16 h after cells; 5–6 mice per group; *P < 0.05 vs control
[4] = test system: SW480 cells; test: qPCR, S100A8-mediated IL-8 and VEGF mRNA induction in SW480 cells; assay type: cell-based, human; conditions: qPCR, normalized to β-actin
Protocol: SW480 cells were treated with S100A8 in Dulbecco’s Modified Eagle Medium/HamF12 supplemented with 0.1% bovine serum albumin for cytokine induction. Total RNA was extracted using the RNeasy Mini Plus (Qiagen, Hilden, Germany). Complementary DNA was synthesized using the PrimeScript 1st Strand Synthesis kit (Takara Bio, Japan). Quantitative PCR (qPCR) analysis was performed using the PowerUp^TM SYBR^TM Green mixture (Thermo Fisher Scientific) and the StepOnePlus Real Time PCR System (Thermo Fisher Scientific). Gene expression levels were calculated from Ct values, and the relationship between the Ct value and the logarithm of the copy number of a target gene was confirmed to be on a linear line using the corresponding isolated DNA and its serial dilutions as a standard. Thus, the gene expression levels of IL-8 and VEGF were normalized against that of β-actin in each sample. The following primers were used; β-actin, 5′-[…]-3′ and 5′-[…]-3′; IL-8, 5′-[…]-3′ and 5′-[…]-3′; VEGF, 5′-[…]-3′ and 5′-[…]-3′.
as §2, §3

[5] = test system: human TLR4/MD-2 complex; test: ELISA, TLR4/MD-2 binding to immobilized S100A8-derived peptides (overlapping peptides, alanine scan); conditions: alanine scan on peptide #3, compared with parental peptide#3, peptide3A5 *P = 0.013
Protocol: as §1, §2
Fig. 3 Identification of high affinity peptides to TLR4/MD-2 using alanine scanning based on the peptide #3 amino acid sequences. A Lists of peptides used for alanine scanning. […] Similar results were obtained in three independent experiments.

[6] = test system: SW480-transplanted xenograft; test: Tumor growth in SW480-transplanted xenograft model; assay type: in vivo, Balb nu/nu mice; conditions: SW480 xenograft, various concentrations every 3 days, *P < 0.05 vs control
[7] = test system: tumor cells and macrophages; test: Cytokine/chemokine induction in tumor cells and macrophages; assay type: cell-based; conditions: possible mechanism scheme, Fig. 7I
[8] = test system: human TLR4/MD-2 complex; test: ELISA, S100A8 protein or mutant binding to TLR4/MD-2; conditions: recombinant S100A8 full length or mutant
Protocol: as §1
Fig. 2 Identification of S100A8 binding sites to human TLR4/MD-2. […] TLR4/MD-2 recombinant proteins were immobilized to the ELISA plate. After blocking, a full length or deletion mutant of S100A8 was added to the plate. The more detailed methods are described in Materials and Methods. […] B A series of overlapping S100A8 synthetic peptides. The TLR4/MD-2 recombinant proteins were added to each well of peptide immobilized plates. The affinity to TLR4/MD-2 was determined. Data are shown as mean ± SD. C The competitive activity was determined using ELISA. Data are shown as mean ± SD. D The TLR4/MD-2 was mixed with S100A8 with/without the indicated peptides, and immunoprecipitated using an anti-TLR4 antibody. TLR4 or S100A8 was visualized. […]

[9] = target: tetravalent ILVIK (human); test: ELISA; tetravalent ILVIK immobilised; after blocking TLR4/MD-2 proteins added at various concentrations (Fig. 7F)
[10] = test system: mouse TLR4/MD-2 complex; conditions: ref [8]; cited from earlier work
[11] = test system: SW480 cells; test: ELISA, IL-8 and VEGF secretion of SW480 cells; assay type: cell-based, human; conditions: SW480 cells; data not shown
Protocol: as §1

T1 sequence (O00206 24-631 limits assumed): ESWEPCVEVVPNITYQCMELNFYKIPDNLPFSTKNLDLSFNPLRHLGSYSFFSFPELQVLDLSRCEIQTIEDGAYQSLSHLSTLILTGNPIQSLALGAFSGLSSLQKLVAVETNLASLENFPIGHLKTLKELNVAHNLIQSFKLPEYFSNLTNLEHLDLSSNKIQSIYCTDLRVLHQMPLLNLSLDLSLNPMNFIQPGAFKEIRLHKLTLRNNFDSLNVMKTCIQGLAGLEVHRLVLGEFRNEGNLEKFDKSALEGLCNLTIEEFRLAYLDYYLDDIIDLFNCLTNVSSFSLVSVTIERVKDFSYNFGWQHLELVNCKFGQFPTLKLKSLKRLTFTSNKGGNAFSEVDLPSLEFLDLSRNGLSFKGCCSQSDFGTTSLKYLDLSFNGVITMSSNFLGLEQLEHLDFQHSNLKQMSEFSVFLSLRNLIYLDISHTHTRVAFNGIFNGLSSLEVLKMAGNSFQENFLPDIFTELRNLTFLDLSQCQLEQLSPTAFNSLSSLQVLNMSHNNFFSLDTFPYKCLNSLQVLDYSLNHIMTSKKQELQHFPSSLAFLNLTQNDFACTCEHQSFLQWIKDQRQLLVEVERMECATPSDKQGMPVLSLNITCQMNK
T1 sequence (Q9Y6Y9 17-160 partner limits assumed): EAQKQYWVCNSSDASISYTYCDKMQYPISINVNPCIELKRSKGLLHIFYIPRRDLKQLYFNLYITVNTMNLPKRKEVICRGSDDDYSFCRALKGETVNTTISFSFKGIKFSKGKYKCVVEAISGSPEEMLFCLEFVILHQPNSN

FQEFA [FQEFA dimer, dimer of FQEFA, peptide3A5 with the last five amino acids deleted]
binding to TLR4/MD-2, peptide3A5-derived peptides [1]: diminished the capacity of binding to TLR4/MD-2

FQEFAILVIK [peptide3A5]
competitive inhibition, potency compared with parent [2]: competed with the S100A8-TLR4/MD-2 complex at a lower dose than peptide #3
competitive inhibition, potency compared with parent ([2]; listed as Peptide3A5): more potent for competitive inhibition on S100A8-TLR4/MD-2 complex than peptide #3
pulmonary recruitment of PKH26-labeled LLC cells / lung metastasis [3]: suppressed the pulmonary recruitment of tumor cells
S100A8-mediated VEGF induction (mRNA) [4]: reduced
S100A8-mediated IL-8 induction (mRNA) ([4]; *P < 0.05 vs S100A8): reduced
affinity for TLR4/MD-2, alanine scanning [5]: increased the affinity for TLR4/MD-2
affinity for TLR4/MD-2, alanine scanning ([5]; listed as Peptide3A5): increased binding affinity to TLR4/MD-2

ILVIK [Divalent ILVIK, divalent peptide with two ILVIK motifs on a monolysine core, N-terminus acetylated]
competitive inhibitory activity against TLR4/MD-2, peptide3A5-derived peptides ([2]; listed as deletion mutant of the FQEFA amino acid sequences): sustained the competitive inhibitory activity
competitive inhibitory activity against TLR4/MD-2, peptide3A5-derived peptides ([2]; listed as divalent ILVIK): candidate inhibitor; also recorded: competitively inhibited S100A8 binding to TLR4/MD-2
tumor growth, multivalent ILVIK [6]: inhibits tumor growth
tumor growth, multivalent ILVIK ([6]; listed as divalent ILVIK): inhibited tumor growth in subcutaneously transplanted SW480 cells in a dose-dependent manner
induction of cytokines/chemokines [7]: suppress the induction of cytokines/chemokines in both tumor cells and macrophages

ILVIK [monomeric ILVIK, monovalent ILVIK peptide, N-terminus acetylated]
competitive inhibitory activity against TLR4/MD-2, peptide3A5-derived peptides [2]: did not perform these activities; also recorded: failed to obtain the competitive inhibitory activities against the TLR4/MD-2 complex
binding to TLR4/MD-2, peptide3A5-derived peptides [1]: did not perform these activities

Lys77: peptide #3 with substitution of Lys77 with alanine (FQEFLILVIA)
affinity for TLR4/MD-2, alanine scanning [5]: diminished the S100A8 activity of TLR4/MD-2 binding

human S100A8: full length human S100A8 recombinant protein
binding to human TLR4/MD-2 (in words) [8]: binds to human TLR4/MD-2 complex

human TLR4/MD-2 complex (from UniProt O00206 24-839; Q9Y6Y9 19-160)
Kd [9]: 4.58 to 8.78 nM

B1: mouse S100A8: mouse S100A8 protein (protein, UniProt P27005 2-89, looked up)
Protein S100-A8: PSELEKALSNLIDVYHNYSNIQGNHHALYKNDFKKMVTTECPQFVQNINIENLFRELDINSDNAINFEEFLAMVIKVGVASHKDSHKE
binding to mouse TLR4/MD-2 [10]: binds to the mouse TLR4/MD-2 complex via the carboxyl-terminal region

B2: S100A8-Lys77Ala: S100A8-Lys77Ala recombinant protein (protein)
chain: MLTELEKALNSIIDVYHKYSLIKGNFHAVYRDDLKKLLETECPQYIRKKGADVWFKELDINTDGAVNFQEFLILVIAMGVAAHKKSHEESHKE
IL-8 production, S100A8 mutant [11]: had no effect on IL-8 production
binding to human TLR4/MD-2 (in words) [8]: hardly bound to the TLR4/MD-2 complex
binding to human TLR4/MD-2 (in words) ([8]; listed as S100A8Lys77Ala): decreased affinity to TLR4/MD-2

Reference: article PMC10021052, “Novel multivalent S100A8 inhibitory peptides attenuate tumor progression and metastasis by inhibiting the TLR4-dependent pathway” (Cancer Gene Therapy, 2023)
